Columns and labels:
Stromelysin-1 [1] = target: T1, Stromelysin-1 (Homo sapiens, UniProt P08254); test: Binding affinity to stromelysin-1 catalytic domain expressed in Escherichia coli BL21 (DE3) by isothermal titration […]
Stromelysin-1 [2] = target: T1, Stromelysin-1; test: Binding affinity to stromelysin-1 catalytic domain

T1 sequence (P08254 whole entry, the tested form may be a part): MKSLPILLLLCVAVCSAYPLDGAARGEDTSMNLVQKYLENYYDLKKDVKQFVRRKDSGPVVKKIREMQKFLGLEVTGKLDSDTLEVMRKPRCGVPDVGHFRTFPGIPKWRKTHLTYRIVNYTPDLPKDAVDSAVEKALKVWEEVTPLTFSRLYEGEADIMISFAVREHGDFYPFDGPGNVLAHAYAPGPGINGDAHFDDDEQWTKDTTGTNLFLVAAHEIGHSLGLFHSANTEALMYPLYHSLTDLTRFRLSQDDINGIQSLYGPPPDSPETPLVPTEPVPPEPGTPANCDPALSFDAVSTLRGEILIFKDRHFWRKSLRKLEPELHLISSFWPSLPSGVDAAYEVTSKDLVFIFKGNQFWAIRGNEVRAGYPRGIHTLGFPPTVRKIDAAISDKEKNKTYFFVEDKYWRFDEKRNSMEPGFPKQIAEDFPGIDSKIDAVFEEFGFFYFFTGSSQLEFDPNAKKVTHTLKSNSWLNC

| SMILES | Kd (Stromelysin-1 [1]) [nM] | Kd (Stromelysin-1 [2]) [nM] |
| --- | --- | --- |
| COc1ccc(S(=O)(=O)N[C@@H](C(=O)NO)C(C)C)cc1 | 43 | 113 |
| N#Cc1ccc(-c2ccc(OCCC(=O)NO)cc2)cc1 | 110 | 100 |
| N#Cc1ccc(-c2ccc(OCCCCC(=O)NO)cc2)cc1 | 17000 | 11000 |

Source: ChEMBL document CHEMBL1153154, “A single step purification for autolytic zinc proteinases” (Bioorg Med Chem Lett, 2010)
